Patent US20220062436A1, “DRUG-PROTEIN CONJUGATES” (priority 2012, published 2022)
pIC50: −log10 of the molar value. Square brackets hold non-standard residues; d marks the D form. Peptide text beside a SMILES is read from it. * marks the point of attachment. Dolaproine = CO[C@@H]([C@@H]1CCCN1)[C@@H](C)C(=O)O; Dil = CC[C@H](C)[C@H](NC)[C@@H](CC(=O)O)OC; X1 = C[C@@H](N*)[C@@H](O)c1ccccc1; NMeV = CN[C@H](C(=O)O)C(C)C

Columns and labels:
[1] = system: HER2-positive SK-BR-3 cells; experiment: Cell viability assay (CellTiter Glo luminescence), inhibition of cell growth; type: cell-based; conditions: 96 h incubation
Method: (§1) The in vitro efficacy of the mAb-reagent 1 conjugates were determined by measuring the inhibitory effect on cell growth of HER-2 receptor over-expressing cancer cell lines.
(§2) Loss of tumour cell viability following treatment with cytotoxic drugs or ADCs in vitro can be measured by growing cell lines in the presence of increasing concentrations of drugs or ADCs and quantifying the loss of proliferation or metabolic activity using CellTiter Glo® Luminescence reagent (Promega Corp. Technical Bulletin TB288; Lewis Phillips G. D, Cancer Res 2008; 68:9280-9290). The protocol describes cell seeding, drug treatment and determination of the cell viability in reference to untreated cells based on ATP synthesis, which is directly related to the number of cells present in the well.
(§3) HER2-positive SK-BR-3 and BT-474 cells were trypsinised with 3 mL Trypsin EDTA for 5-15 min. Trypsinisation was stopped by adding 10 mL complete medium, and cells were transferred to a 50 mL Falcon tube. Cells were counted using a Neubauer haemocytometer and adjusted to a cell density of 1×10^5/mL for BT-474 and 5×10^4/mL for SK-BR-3 respectively. Cells were seeded (100 μL/well) into poly-D-lysine coated opaque-walled 96-well plates and incubated for 24 h at 37° C. and 5% CO2. Tumour cell lines SK-BR-3 (ATCC-HTB-30) and BT-474 (ATCC-HTB-20) were purchased from the American Type Culture Collection. SK-BR-3 cells were grown in McCoy's 5A medium (Life Technologies®), 10% fetal bovine serum, 100 u/mL Penicillin and 100 μg/mL Streptomycin. BT-474 cells were grown in DMEM/F-12 medium (Life Technologies®), 10% fetal bovine serum, 100 u/mL Penicillin and 100 μg/mL Streptomycin. […]
(§4) The cell viability assay was carried out using the Cell-Titer Glo® Luminescence reagent, as described by the manufacturer's instructions, (Promega Corp. Technical Bulletin TB288; Lewis Phillips G. D, Cancer Res 2008; 68:9280-9290). […] Luminescence was recorded using a plate reader (e.g. MD Spectramax M3 plate reader), and data subsequently analysed using a four parameter non-linear regression model.
(§5) The results are shown in FIG. 6, which illustrates cell viability responses to treatment with either antibody-reagent 1 conjugate within SKBR-3 or BT-474 cells. Viability is expressed as % of untreated cells. […]
(§6) The in vitro efficacy of the reagent 6 and reagent 9 antibody conjugates prepared in Example 12 were determined by measuring the inhibitory effect on cell growth of HER-2 receptor over-expressing cancer cell lines by the method of Example 9.
(§7) The results are shown in FIG. 7, which illustrates cell viability responses to treatment with either reagent 6 conjugate or reagent 9 conjugate within SKBR-3 or BT-474 cells. Viability is expressed as % of untreated cells. […]

[2] = system: HER2-positive BT-474 cells; experiment: as above; type: cell-based; conditions: 96 h incubation
Method: as §1, §2, §3, §4, §5, §6, §7

Compound: CC[C@H](C)[C@@H]([C@@H](CC(=O)N1CCC[C@H]1[C@H](OC)[C@@H](C)C(=O)N[C@H](C)[C@@H](O)c1ccccc1)OC)N(C)C(=O)[C@@H](NC(=O)[C@@H](NC)C(C)C)C(C)C [MMAE, monomethyl auristatin E] (H-[NMeV]V[Dil][Dolaproine]-X1)
- pIC50 ([1]; Example 9, Table 5): 9.70
- pIC50 ([1]; Example 13, Table 7): 9.57
- pIC50 ([2]; Example 9, Table 5): 9.12
- pIC50 ([2]; Example 13, Table 7): 9.07
